Experimental data published in PubChem BioAssay (NCI).
Values joined by “and” are separate entries in the source; they are usually repeats but may differ in a detail not shown here. Equal values may be shown once.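 96-well plates; 48 h exposure; 5 concentrations. Endpoints by linear interpolation between flanking doses. Not reached: highest tested concentration assigned. GI50 = concentration required for 50% inhibition of growth. At the TGI there is no net growth.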

Experiments:
Assay in all cases: DTP human tumour cell line panel, 48 h
[1] = test system: DU-145 prostate
[2] = test system: HS 578T breast
[3] = test system: MCF7 breast
[4] = test system: NCI/ADR-RES ovarian
[5] = test system: DLD-1 colon
[6] = test system: DMS 114 small cell lung
[7] = test system: DMS 273 small cell lung
[8] = test system: KM20L2 colon
[9] = test system: LXFL 529 NSCLC
[10] = test system: SNB-78 CNS
[11] = test system: XF 498 CNS

CCCOc1cc2ccccc2cc1C(=O)Nc1nc(NC)c2c(ccc3nccc32)[nH]1
GI50 [1]: 0.345 µM | TGI [1]: 1.23 µM | GI50 [2]: 1.42 µM | TGI [2]: 3.85 µM | GI50 [3]: 0.263 µM | TGI [3]: 1.31 µM | GI50 [4]: 0.55 µM | TGI [4]: 2.48 µM

Cc1ccc(S(=O)(=O)OCC#CCOS(=O)(=O)c2ccc(C)cc2)cc1
GI50 [1]: 1.86 µM | TGI [1]: 3.76 µM | GI50 [2]: 2.75 µM | TGI [2]: 14.2 µM | GI50 [3]: 3.21 µM | TGI [3]: 16.7 µM | GI50 [4]: 2.12 µM | TGI [4]: 5.93 µM

CN1CCN(c2ccc(OC(F)(F)F)c(Nc3ncc4c(n3)-c3c(c(C(N)=O)nn3CCO)CC4)c2)CC1
GI50 [1]: 0.0349 µM and 0.0417 µM | TGI [1]: > 100 µM | GI50 [2]: 0.164 µM and 0.184 µM | TGI [2]: 18.5 µM and > 5 µM | GI50 [3]: 0.0235 µM and 0.0357 µM | TGI [3]: 15.7 µM and > 10 µM | GI50 [4]: 1.19 µM and 1.04 µM | TGI [4]: > 62.6 µM

N#Cc1cnc2cc(OC[C@@H](O)CO)c(NC(=O)C3CCCC3)cc2c1Nc1ccc(OCc2cccc(F)c2)c(Cl)c1
GI50 [1]: 0.712 µM | TGI [1]: 1.42 µM | GI50 [2]: 0.265 µM | TGI [2]: 1.43 µM | GI50 [4]: 21.7 µM | TGI [4]: > 50 µM

O=C(CSCC(=O)N/N=C/c1ccccc1O)N/N=C\c1ccccc1O
GI50 [1]: 1.92 µM | TGI [1]: > 100 µM | GI50 [2]: 26.7 µM | TGI [2]: > 100 µM | GI50 [3]: 5.85 µM | TGI [3]: > 100 µM | GI50 [4]: 2.87 µM | TGI [4]: > 100 µM

Cc1cc(C(=O)Nc2n[nH]c3ccccc23)n[nH]1
GI50 [1]: > 100 µM | TGI [1]: > 100 µM | GI50 [2]: > 100 µM | TGI [2]: > 100 µM | GI50 [3]: > 100 µM | TGI [3]: > 100 µM | GI50 [4]: > 100 µM | TGI [4]: > 100 µM

COc1cc(Cl)cc(-c2nn(-c3cccc(NC(=O)Nc4cccc(C(F)(F)F)c4)c3)cc2-c2ccncc2)c1
GI50 [1]: 2.61 µM | TGI [1]: > 100 µM | GI50 [2]: 4.06 µM | TGI [2]: > 100 µM | GI50 [3]: 1.48 µM | TGI [3]: 7.57 µM | GI50 [4]: 1.65 µM | TGI [4]: 7.81 µM

Cc1ccc(Nc2cc(Cl)c([N+](=O)[O-])cc2[N+](=O)[O-])cc1
GI50 [1]: 2.95 µM | TGI [1]: 7.55 µM | GI50 [2]: 7.63 µM | TGI [2]: > 24.7 µM | GI50 [3]: 2.7 µM | TGI [3]: 7.68 µM | GI50 [4]: 3.83 µM | TGI [4]: 24 µM

Cc1coc2c1C(=O)C(=O)c1ccccc1-2
TGI [5]: 4.26 µM | TGI [6]: 0.326 µM | TGI [7]: 3.33 µM | TGI [8]: 11.2 µM | TGI [9]: 1.41 µM | TGI [10]: 3.13 µM

COc1cccc(-c2nn(-c3ccccc3)cc2-c2ccnc(NCCCNC(=O)c3cccc(C(F)(F)F)c3)c2)c1
GI50 [1]: 8.72 µM | TGI [1]: 66.3 µM | GI50 [2]: 5.6 µM | TGI [2]: 36.9 µM | GI50 [3]: 3.54 µM | TGI [3]: 18.5 µM | GI50 [4]: 3.54 µM | TGI [4]: 16.8 µM

NC(=S)N=Nc1c(O)[nH]c2c(Cl)cc(Cl)cc12
TGI [2]: 72.5 µM | TGI [3]: > 100 µM | TGI [4]: 38.7 µM

CC(C)(C)OC(=O)NCCCCn1c2c(c3ccccc3c1=O)C(=O)c1ccccc1-2
GI50 [1]: 9.59 µM | TGI [1]: > 100 µM | GI50 [2]: 20.9 µM | TGI [2]: 52.8 µM | GI50 [3]: 21.3 µM | TGI [3]: > 100 µM | GI50 [4]: 15.7 µM | TGI [4]: 45.7 µM

O=S(=O)(NCCNc1nccc(-c2c(-c3ccc(F)c(O)c3)nc3sccn23)n1)c1ccc(Cl)cc1
GI50 [1]: 2.9 µM | TGI [1]: > 50 µM | GI50 [2]: 1.26 µM | TGI [2]: 13.3 µM | GI50 [3]: 1.52 µM | TGI [3]: > 50 µM | GI50 [4]: 1.79 µM | TGI [4]: 17.5 µM

Cc1ccc(C(=O)c2sc3nc4c(cc3c2N)CCCC4)c(C)c1
GI50 [1]: 0.838 µM | TGI [1]: > 100 µM | GI50 [2]: 0.415 µM | TGI [2]: > 100 µM | GI50 [3]: 0.162 µM | TGI [3]: > 100 µM | GI50 [4]: 0.239 µM | TGI [4]: > 100 µM

O=c1c2cc(Br)cc(Br)c2nc(CCCl)n1-c1ccc(O)c([N+](=O)[O-])c1
TGI [5]: 36.6 µM | TGI [6]: 36.3 µM | TGI [7]: 36.9 µM | TGI [9]: 30.3 µM | TGI [10]: 62.3 µM

COc1ccc(C(C)c2cc(OC)c(OC)c(OC)c2)cc1 (stereo unspecified)
GI50 [1]: 0.198 µM | TGI [1]: > 50 µM | GI50 [2]: 0.244 µM | TGI [2]: > 50 µM | GI50 [4]: 0.0574 µM | TGI [4]: > 50 µM

CCOC(=O)C(=O)Nc1cc(Cl)c(Cl)cc1Cl
TGI [6]: > 100 µM | TGI [7]: > 100 µM | TGI [8]: > 100 µM | TGI [9]: > 100 µM | TGI [10]: > 100 µM

CCN(CC)c1c(-c2ccccc2)n[nH]c1C(=O)OC
GI50 [1]: 36.9 µM | TGI [1]: > 100 µM | GI50 [2]: 17 µM | TGI [2]: 49.4 µM | GI50 [3]: 23.1 µM | TGI [3]: 54.4 µM | GI50 [4]: 19.2 µM | TGI [4]: 37.4 µM

NCCCOc1cc2ccccc2cc1C(=O)Nc1ccc(Cl)cc1OC(=O)c1cc2ccccc2cc1OCCCN
GI50 [1]: 0.303 µM | TGI [1]: 0.781 µM | GI50 [3]: 0.173 µM | TGI [3]: 0.332 µM | GI50 [4]: 1.17 µM | TGI [4]: 2.79 µM

O=C1C(=C2CCCC2)CCC1CN1CCCCC1 (stereo unspecified)
TGI [6]: 41.2 µM | TGI [8]: 32.9 µM | TGI [9]: 26.2 µM | TGI [10]: 41.4 µM

N#Cc1ccc(-c2c(-c3ncn[nH]3)sc(N3CCOCC3)c2C#N)c(F)c1
GI50 [1]: 1.66 µM | TGI [1]: > 100 µM | GI50 [2]: 0.381 µM | TGI [2]: 4.85 µM | GI50 [3]: 0.135 µM | TGI [3]: 17.7 µM | GI50 [4]: 3.19 µM | TGI [4]: > 100 µM

C[C@H]1C/C=C/[C@H]2[C@@H]3O[C@]3(C)[C@@H](C)[C@H]3[C@H](Cc4ccccc4)NC(=O)[C@]32OC(=O)O/C=C/[C@@](C)(O)C1=O
GI50 [6]: 0.0706 µM and 0.025 µM | TGI [6]: 9.99 µM and 20.2 µM and 33.3 µM | GI50 [7]: 0.0125 µM | TGI [7]: > 96.8 µM and 64.2 µM | GI50 [8]: 0.0125 µM | TGI [8]: > 92.3 µM and 125 µM and > 250 µM | GI50 [3]: 0.0125 µM and 0.025 µM | TGI [3]: 64.4 µM and 125 µM and 67.2 µM | GI50 [4]: 34 µM and 33.3 µM | TGI [4]: > 81.9 µM and 125 µM and 160 µM | GI50 [10]: 0.024 µM and 0.025 µM | GI50 [11]: < 0.025 µM

CCOC(=O)C(Cc1c[nH]c2cc(N(CCO)CCO)ccc12)(NC(C)=O)C(=O)OCC
GI50 [1]: 391 µM | TGI [1]: > 1000 µM | GI50 [2]: 246 µM | TGI [2]: 808 µM | GI50 [3]: 26.6 µM and 135 µM | TGI [3]: 815 µM | GI50 [4]: > 1000 µM | TGI [4]: > 1000 µM

COc1cc(-n2cc(-c3ccccc3)[nH]c2=O)cc(OC)c1OC
GI50 [2]: 29.8 µM | TGI [2]: 85.4 µM | GI50 [3]: 44.9 µM | TGI [3]: > 100 µM | GI50 [4]: 33 µM | TGI [4]: > 100 µM

O=C(O)C1CC=CCC1C(=O)Nc1cccc(O)c1 (stereo unspecified)
TGI [1]: > 100 µM | TGI [2]: > 100 µM | TGI [3]: > 100 µM | TGI [4]: > 100 µM

CC(=O)Oc1ccc2c(c1)[C@@]1(C)CCCC(C)(C)[C@@H]1CC2
GI50 [2]: 24.7 µM | TGI [2]: 56.5 µM | GI50 [3]: 34.6 µM | TGI [3]: > 100 µM | GI50 [4]: 26 µM | TGI [4]: 49.9 µM
